How the values were obtained:
Type in all cases: in vivo
[1] = tested on: Echinochloa crus-galli; test: Test Example 12: herbicidal effect test by treatment during growing period in paddy field; settings: 120 g/10a; treatment seven days after sowing in flooded paddy pot; assessed 14 days after treatment
How it was run: (§1)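 Paddy soil + NPK 17:17:17, puddled; 30 seeds/species sown 0–1 cm; flooded ~3 cm, greenhouse. Day 7 post-sowing: EC diluted in water, applied dropwise into water, 120 g a.i./10 are. Day 14 post-treatment: dry weight vs untreated → % suppression; n=2.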

[2] = tested on: Lindernia pyxidaria; test: as above; settings: 120 g/10a; treatment seven days after sowing in flooded paddy pot; assessed 14 days after treatment
How it was run: as §1

[3] = tested on: Scirpus juncoides; test: as above; settings: 120 g/10a; treatment seven days after sowing in flooded paddy pot; assessed 14 days after treatment
How it was run: as §1

[4] = tested on: Monochoria vaginalis; test: as above; settings: 120 g/10a; treatment seven days after sowing in flooded paddy pot; assessed 14 days after treatment
How it was run: as §1

[5] = tested on: Echinochloa crus-galli; test: Test Example 11: herbicidal effect test by soil treatment in paddy field; settings: 120 g/10a active ingredient, 14 days after treatment
How it was run: (§2)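 Dry weight at day 14 relative to untreated controls gives the suppression rate; duplicate pots. Treatment: 120 g a.i./10 are into paddy water at sowing.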

[6] = tested on: Lindernia pyxidaria; test: as above; settings: 120 g/10a active ingredient, 14 days after treatment
How it was run: as §2

[7] = tested on: Scirpus juncoides; test: as above; settings: 120 g/10a active ingredient, 14 days after treatment
How it was run: as §2

[8] = tested on: Monochoria vaginalis; test: as above; settings: 120 g/10a active ingredient, 14 days after treatment
How it was run: as §2

[9] = tested on: Echinochloa crus-galli; test: Test Example 13: herbicidal effect test by soil treatment in upland field; settings: 120 g/10a, 14 days after treatment
How it was run: (§3)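 Soil-applied emulsifiable concentrate at 120 g active ingredient per 10 are, sprayed one day after seeding into alluvial soil pots. Dry-weight-based suppression scored at 14 days; two replications.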

[10] = tested on: Chenopodium album; test: as above; settings: 120 g/10a, 14 days after treatment
How it was run: as §3

[11] = tested on: Amaranthus viridis; test: as above; settings: 120 g/10a, 14 days after treatment
How it was run: as §3

[12] = tested on: crabgrass; test: as above; settings: 120 g/10a, 14 days after treatment
How it was run: as §3

[13] = tested on: Chenopodium album; test: Test Example 14: herbicidal effect test by foliage treatment in upland field; settings: 7 days after sowing, 120 g/10a, 14 days after treatment
How it was run: (§4)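 Post-sowing spray at day 7, 120 g a.i./10 are in 100 L water/10 are; alluvial soil pots, duplicate plots; endpoint day 14, % suppression from dry weight relative to untreated.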

[14] = tested on: crabgrass; test: as above; settings: 7 days after sowing, 120 g/10a, 14 days after treatment
How it was run: as §4

[15] = tested on: Echinochloa crus-galli; test: as above; settings: 7 days after sowing, 120 g/10a, 14 days after treatment
How it was run: as §4

[16] = tested on: Amaranthus viridis; test: as above; settings: 7 days after sowing, 120 g/10a, 14 days after treatment
How it was run: as §4

CC(C)N(C(=O)n1cnn(S(=O)(=O)CCl)c1=O)c1ccc(F)cc1F [Compound 11-109]
Weed suppression rate (%) Echinochloa crus-galli [1]: 100% | Weed suppression rate (%) Lindemia pyxidaria [2]: 100% | Weed suppression rate (%) Scirpus juncoides [3]: 90% | Weed suppression rate (%) Monochoria vaginalis [4]: 90% | Weed suppression rate (%) Echinochloa crus-galli [5]: 100% | Weed suppression rate (%) Lindemia pyxidaria [6]: 100% | Weed suppression rate (%) Scirpus juncoides [7]: 90% | Weed suppression rate (%) Monochoria vaginalis [8]: 90% | herbicidal effect, Echinochloa crus-galli [9]: 100% | herbicidal effect, Chenopodium album [10]: 100% | herbicidal effect, Amaranthus viridis [11]: 90% | herbicidal effect, Crabgrass [12]: 100% | herbicidal effect, Chenopodium album [13]: 40% | herbicidal effect, Crabgrass [14]: 90% | herbicidal effect, Echinochloa crus-galli [15]: 90% | herbicidal effect, Amaranthus viridis [16]: 40%

CC(C)N(C(=O)n1cnn(S(=O)(=O)C2CC2)c1=O)c1ccc(F)cc1F [Compound 11-142, 1-cyclopropylsulfonyl-N-(2,4-difluorophenyl)-N-isopropyl-5-oxo-1,2,4-triazole-4-carboxamide]
Weed suppression rate (%) Echinochloa crus-galli [1]: 100% | Weed suppression rate (%) Lindemia pyxidaria [2]: 80% | Weed suppression rate (%) Scirpus juncoides [3]: 80% | Weed suppression rate (%) Monochoria vaginalis [4]: 90% | Weed suppression rate (%) Echinochloa crus-galli [5]: 100% | Weed suppression rate (%) Lindemia pyxidaria [6]: 100% | Weed suppression rate (%) Scirpus juncoides [7]: 100% | Weed suppression rate (%) Monochoria vaginalis [8]: 90% | herbicidal effect, Echinochloa crus-galli [9]: 80% | herbicidal effect, Chenopodium album [10]: 80% | herbicidal effect, Amaranthus viridis [11]: 90% | herbicidal effect, Crabgrass [12]: 90% | herbicidal effect, Chenopodium album [13]: 80% | herbicidal effect, Crabgrass [14]: 90% | herbicidal effect, Echinochloa crus-galli [15]: 80% | herbicidal effect, Amaranthus viridis [16]: 90%

CC(C)N(C(=O)n1cnn(S(=O)(=O)c2ccc(C(C)(C)C)cc2)c1=O)c1ccc(Cl)cn1 [Compound 11-706]
Weed suppression rate (%) Echinochloa crus-galli [1]: 80% | Weed suppression rate (%) Lindemia pyxidaria [2]: 80% | Weed suppression rate (%) Scirpus juncoides [3]: 70% | Weed suppression rate (%) Monochoria vaginalis [4]: 80% | Weed suppression rate (%) Echinochloa crus-galli [5]: 100% | Weed suppression rate (%) Lindemia pyxidaria [6]: 100% | Weed suppression rate (%) Scirpus juncoides [7]: 90% | Weed suppression rate (%) Monochoria vaginalis [8]: 80% | herbicidal effect, Echinochloa crus-galli [9]: 80% | herbicidal effect, Chenopodium album [10]: 50% | herbicidal effect, Amaranthus viridis [11]: 50% | herbicidal effect, Crabgrass [12]: 80% | herbicidal effect, Chenopodium album [13]: 40% | herbicidal effect, Crabgrass [14]: 50% | herbicidal effect, Echinochloa crus-galli [15]: 0% | herbicidal effect, Amaranthus viridis [16]: 70%

CC(C)N(C(=O)n1cnn(S(=O)(=O)c2ccc(F)cc2)c1=O)c1ccc(F)cc1Cl [Compound 11-482]
Weed suppression rate (%) Echinochloa crus-galli [1]: 90% | Weed suppression rate (%) Lindemia pyxidaria [2]: 80% | Weed suppression rate (%) Scirpus juncoides [3]: 90% | Weed suppression rate (%) Monochoria vaginalis [4]: 80% | Weed suppression rate (%) Echinochloa crus-galli [5]: 90% | Weed suppression rate (%) Lindemia pyxidaria [6]: 80% | Weed suppression rate (%) Scirpus juncoides [7]: 90% | Weed suppression rate (%) Monochoria vaginalis [8]: 80% | herbicidal effect, Echinochloa crus-galli [9]: 80% | herbicidal effect, Chenopodium album [10]: 80% | herbicidal effect, Amaranthus viridis [11]: 90% | herbicidal effect, Crabgrass [12]: 90% | herbicidal effect, Chenopodium album [13]: 80% | herbicidal effect, Crabgrass [14]: 90% | herbicidal effect, Echinochloa crus-galli [15]: 80% | herbicidal effect, Amaranthus viridis [16]: 90%

CC(C)N(C(=O)n1cnn(S(=O)(=O)C(C)C)c1=O)c1c(F)cc(F)cc1F [Compound 11-63]
Weed suppression rate (%) Echinochloa crus-galli [1]: 100% | Weed suppression rate (%) Lindemia pyxidaria [2]: 80% | Weed suppression rate (%) Scirpus juncoides [3]: 100% | Weed suppression rate (%) Monochoria vaginalis [4]: 100% | Weed suppression rate (%) Echinochloa crus-galli [5]: 100% | Weed suppression rate (%) Lindemia pyxidaria [6]: 100% | Weed suppression rate (%) Scirpus juncoides [7]: 100% | Weed suppression rate (%) Monochoria vaginalis [8]: 100% | herbicidal effect, Echinochloa crus-galli [9]: 100% | herbicidal effect, Chenopodium album [10]: 90% | herbicidal effect, Amaranthus viridis [11]: 90% | herbicidal effect, Crabgrass [12]: 100% | herbicidal effect, Chenopodium album [13]: 70% | herbicidal effect, Crabgrass [14]: 100% | herbicidal effect, Echinochloa crus-galli [15]: 100% | herbicidal effect, Amaranthus viridis [16]: 60%

CC(C)N(C(=O)n1cnn(S(=O)(=O)c2ccc(F)cc2)c1=O)c1ccc(F)cc1F [Compound 11-475]
Weed suppression rate (%) Echinochloa crus-galli [1]: 90% | Weed suppression rate (%) Lindemia pyxidaria [2]: 90% | Weed suppression rate (%) Scirpus juncoides [3]: 90% | Weed suppression rate (%) Monochoria vaginalis [4]: 90% | Weed suppression rate (%) Echinochloa crus-galli [5]: 100% | Weed suppression rate (%) Lindemia pyxidaria [6]: 90% | Weed suppression rate (%) Scirpus juncoides [7]: 90% | Weed suppression rate (%) Monochoria vaginalis [8]: 90% | herbicidal effect, Echinochloa crus-galli [9]: 100% | herbicidal effect, Chenopodium album [10]: 90% | herbicidal effect, Amaranthus viridis [11]: 80% | herbicidal effect, Crabgrass [12]: 100% | herbicidal effect, Chenopodium album [13]: 40% | herbicidal effect, Crabgrass [14]: 90% | herbicidal effect, Echinochloa crus-galli [15]: 70% | herbicidal effect, Amaranthus viridis [16]: 40%

CC(C)N(C(=O)n1cnn(S(=O)(=O)C2CC2)c1=O)c1ccc(Cl)nc1Cl [Compound 11-238]
Weed suppression rate (%) Echinochloa crus-galli [1]: 100% | Weed suppression rate (%) Lindemia pyxidaria [2]: 80% | Weed suppression rate (%) Scirpus juncoides [3]: 90% | Weed suppression rate (%) Monochoria vaginalis [4]: 90% | Weed suppression rate (%) Echinochloa crus-galli [5]: 90% | Weed suppression rate (%) Lindemia pyxidaria [6]: 100% | Weed suppression rate (%) Scirpus juncoides [7]: 90% | Weed suppression rate (%) Monochoria vaginalis [8]: 80% | herbicidal effect, Echinochloa crus-galli [9]: 80% | herbicidal effect, Chenopodium album [10]: 80% | herbicidal effect, Amaranthus viridis [11]: 90% | herbicidal effect, Crabgrass [12]: 90% | herbicidal effect, Chenopodium album [13]: 80% | herbicidal effect, Crabgrass [14]: 90% | herbicidal effect, Echinochloa crus-galli [15]: 80% | herbicidal effect, Amaranthus viridis [16]: 90%

CC(C)N(C(=O)n1cnn(S(=O)(=O)C(C)C)c1=O)c1ncc(Cl)cc1Cl [Compound 11-86]
Weed suppression rate (%) Echinochloa crus-galli [1]: 90% | Weed suppression rate (%) Lindemia pyxidaria [2]: 90% | Weed suppression rate (%) Scirpus juncoides [3]: 90% | Weed suppression rate (%) Monochoria vaginalis [4]: 90% | Weed suppression rate (%) Echinochloa crus-galli [5]: 90% | Weed suppression rate (%) Lindemia pyxidaria [6]: 80% | Weed suppression rate (%) Scirpus juncoides [7]: 90% | Weed suppression rate (%) Monochoria vaginalis [8]: 80% | herbicidal effect, Echinochloa crus-galli [9]: 80% | herbicidal effect, Chenopodium album [10]: 80% | herbicidal effect, Amaranthus viridis [11]: 90% | herbicidal effect, Crabgrass [12]: 90% | herbicidal effect, Chenopodium album [13]: 80% | herbicidal effect, Crabgrass [14]: 90% | herbicidal effect, Echinochloa crus-galli [15]: 80% | herbicidal effect, Amaranthus viridis [16]: 90%

CC(C)N(C(=O)n1cnn(S(=O)(=O)C2CC2)c1=O)c1ccc(F)c(F)c1F [Compound 11-194]
Weed suppression rate (%) Echinochloa crus-galli [1]: 100% | Weed suppression rate (%) Lindemia pyxidaria [2]: 100% | Weed suppression rate (%) Scirpus juncoides [3]: 100% | Weed suppression rate (%) Monochoria vaginalis [4]: 100% | Weed suppression rate (%) Echinochloa crus-galli [5]: 100% | Weed suppression rate (%) Lindemia pyxidaria [6]: 100% | Weed suppression rate (%) Scirpus juncoides [7]: 100% | Weed suppression rate (%) Monochoria vaginalis [8]: 100% | herbicidal effect, Echinochloa crus-galli [9]: 90% | herbicidal effect, Chenopodium album [10]: 70% | herbicidal effect, Amaranthus viridis [11]: 100% | herbicidal effect, Crabgrass [12]: 90% | herbicidal effect, Chenopodium album [13]: 80% | herbicidal effect, Crabgrass [14]: 100% | herbicidal effect, Echinochloa crus-galli [15]: 100% | herbicidal effect, Amaranthus viridis [16]: 90%
